According to patent US20220347308A1, “METHODS AND MEANS FOR INDUCING AN IMMUNE RESPONSE” (BIONTECH AG, priority 2015, published 2022):

Tested on: interferon-alpha
Assay: Sensitization by a first danger signal to a subsequent Protamine-RNA injection, serum interferon-alpha (ELISA)
Type: in vivo, mice
Settings: first injection: 50 micrograms CpG, 10 micrograms imiquimod, 2 micrograms dsRNA or 10 micrograms RNA in particles, then 10 micrograms RNA in Protamine particles, sera 3 h after second injection, vs single Protamine-RNA injection
Protocol: The DNA oligonucleotide “CpG 1585” (invivogen) which is a mouse TLR9 agonist was diluted at 0.5 micrograms per microlitre in PBS. Imiquimod (invivogen) was diluted to 0.1 microgram per microliter in PBS. RNA (mRNA coding for firefly luciferase) and Protamine were diluted to 0.5 mg/ml using pure water. Hundred micrograms RNA (200 microliters) were mixed with hundred micrograms Protamine IPEX (200 microliters) thereby generating approximately 100 nm particles. Forty percent Glucose was added to reach 5% glucose final and 5% Glucose was added so that the final injectable solution contains 10 micrograms RNA (and 10 micrograms Protamine) in 70 microliters.
Mice were injected intravenous with 100 microliters of CpG (50 micrograms DNA “CpG(2h)PR11”) or 100 microliters of imiquimod (10 micrograms Imiquimod “Imi(2h)PR11”) or 70 microliters of Protamine-RNA particles (10 micrograms RNA “PR11(2h)PR11”) and 2 hours later all received 70 microliters of Protamine-RNA (10 micrograms RNA) intravenous. Three mice per group. Sera were drawn 3 hours after this second injection. As controls, mice were injected intravenous with 100 microliters of CpG (50 micrograms “CpG alone”) or 100 microliters of imiquimod (10 micrograms “Imi alone”) or 70 microliters of Protamine-RNA particles (10 micrograms RNA “PR11 alone”). Three mice per group. […] Interferon-alpha was measured in sera using Verikine™ ELISA kit from PBL. […]

CC(C)Cn1cnc2c(N)nc3ccccc3c21 [Imiquimod]
interferon-alpha in serum when given i.v. as first injection 2 h before Protamine-RNA particles: can sensitize the immune system to produce an enhanced amount of interferon-alpha
interferon-alpha in serum when given i.v. as first injection 2 h before Protamine-RNA particles (listed as imiquimod): strong (synergistic) interferon production
